Assay results reported in PubChem BioAssay (NCI).
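Grown in 96-well plates, cells were treated for 48 hours with each compound at five concentrations. Insufficient inhibition: endpoint recorded as highest concentration tested. The concentration for 50% growth inhibition is given as GI50. At the TGI there is no net growth.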

How the values were obtained:
Assay in all cases: NCI tumour cell line growth inhibition, 48 h
K-562 leukemia = test system: K-562 leukemia
M14 melanoma = test system: M14 melanoma
SW-620 colon = test system: SW-620 colon
COLO 205 colon = test system: COLO 205 colon
PC-3 prostate = test system: PC-3 prostate
CAKI-1 renal = test system: CAKI-1 renal
MALME-3M melanoma = test system: MALME-3M melanoma
HCT-15 colon = test system: HCT-15 colon
LOX IMVI melanoma = test system: LOX IMVI melanoma
NCI/ADR-RES ovarian = test system: NCI/ADR-RES ovarian
A498 renal = test system: A498 renal
SNB-19 CNS = test system: SNB-19 CNS
NCI-H23 lung = test system: NCI-H23 lung
SK-OV-3 ovarian = test system: SK-OV-3 ovarian
BT-549 breast = test system: BT-549 breast
SF-268 CNS = test system: SF-268 CNS
786-0 renal = test system: 786-0 renal
HCC-2998 colon = test system: HCC-2998 colon
KM12 colon = test system: KM12 colon
SK-MEL-5 melanoma = test system: SK-MEL-5 melanoma
SN12C renal = test system: SN12C renal
DU-145 prostate = test system: DU-145 prostate
EKVX NSCLC = test system: EKVX NSCLC
NCI-H226 lung = test system: NCI-H226 lung
OVCAR-3 ovarian = test system: OVCAR-3 ovarian
MCF7 breast = test system: MCF7 breast
IGROV1 ovarian = test system: IGROV1 ovarian
SF-295 CNS = test system: SF-295 CNS
SK-MEL-2 melanoma = test system: SK-MEL-2 melanoma
ACHN renal = test system: ACHN renal
MDA-MB-231 breast = test system: MDA-MB-231 breast
NCI-H460 lung = test system: NCI-H460 lung
MOLT-4 leukemia = test system: MOLT-4 leukemia
CCRF-CEM leukemia = test system: CCRF-CEM leukemia
SF-539 CNS = test system: SF-539 CNS
A549 NSCLC = test system: A549 NSCLC
MDA-MB-435 = test system: MDA-MB-435
SK-MEL-28 melanoma = test system: SK-MEL-28 melanoma
SR leukemia = test system: SR leukemia
HCT-116 colon = test system: HCT-116 colon
TK-10 renal = test system: TK-10 renal
UACC-257 melanoma = test system: UACC-257 melanoma
UACC-62 melanoma = test system: UACC-62 melanoma
UO-31 renal = test system: UO-31 renal
U251 CNS = test system: U251 CNS
RXF 393 renal = test system: RXF 393 renal
HOP-92 NSCLC = test system: HOP-92 NSCLC
OVCAR-5 ovarian = test system: OVCAR-5 ovarian
HS 578T breast = test system: HS 578T breast
T-47D breast = test system: T-47D breast
HL-60(TB) leukemia = test system: HL-60(TB) leukemia
RPMI-8226 leukemia = test system: RPMI-8226 leukemia
NCI-H522 lung = test system: NCI-H522 lung
OVCAR-8 ovarian = test system: OVCAR-8 ovarian
OVCAR-4 ovarian = test system: OVCAR-4 ovarian
HT29 colon = test system: HT29 colon
SNB-75 CNS = test system: SNB-75 CNS
HOP-62 NSCLC = test system: HOP-62 NSCLC

With `C[n+]1c2ccccc2nc2ccccc21` as the compound, how does the GI50 (K-562 leukemia) read?
The GI50 was 1860 nM.

What about the TGI (K-562 leukemia) of the same compound?
Its TGI is over 32400 nM.

What about the GI50 (M14 melanoma) of the same compound?
The GI50 was 1670 nM.

And the TGI (M14 melanoma)?
Its TGI is 3890 nM.

What about the GI50 (SW-620 colon) of the same compound?
Its GI50 is 1370 nM.

What about the TGI (SW-620 colon) of the same compound?
The TGI was 3260 nM.

What about the GI50 (COLO 205 colon) of the same compound?
Its GI50 is 375 nM.

What about the TGI (COLO 205 colon) of the same compound?
Its TGI is 1390 nM.

And the GI50 (PC-3 prostate)?
The GI50 was 1060 nM.

And the TGI (PC-3 prostate)?
The TGI was 12000 nM.

What about the GI50 (CAKI-1 renal) of the same compound?
Its GI50 is 2090 nM.

And the TGI (CAKI-1 renal)?
Its TGI is 6420 nM.

What about the GI50 (MALME-3M melanoma) of the same compound?
Its GI50 is 1220 nM.

And the TGI (MALME-3M melanoma)?
Its TGI is 2700 nM.

What about the GI50 (HCT-15 colon) of the same compound?
Its GI50 is 2070 nM.

And the TGI (HCT-15 colon)?
Its TGI is 10800 nM.

And the GI50 (LOX IMVI melanoma)?
Its GI50 is 819 nM.

And the TGI (LOX IMVI melanoma)?
The TGI was 2380 nM.

And the GI50 (NCI/ADR-RES ovarian)?
The GI50 was 1680 nM.

And the TGI (NCI/ADR-RES ovarian)?
Its TGI is 6910 nM.

What about the GI50 (A498 renal) of the same compound?
The GI50 was 1750 nM.

And the TGI (A498 renal)?
The TGI was 3460 nM.

And the GI50 (SNB-19 CNS)?
The GI50 was 4030 nM.

And the TGI (SNB-19 CNS)?
The TGI was 16800 nM.

And the GI50 (NCI-H23 lung)?
Its GI50 is 670 nM.

What about the TGI (NCI-H23 lung) of the same compound?
The TGI was 2340 nM.

What about the GI50 (SK-OV-3 ovarian) of the same compound?
The GI50 was 4590 nM.

And the TGI (SK-OV-3 ovarian)?
Its TGI is 18100 nM.

And the GI50 (BT-549 breast)?
The GI50 was 2260 nM.

What about the TGI (BT-549 breast) of the same compound?
The TGI was 10800 nM.

What about the GI50 (SF-268 CNS) of the same compound?
The GI50 was 2520 nM.

What about the TGI (SF-268 CNS) of the same compound?
The TGI was 7780 nM.

And the GI50 (786-0 renal)?
Its GI50 is 2310 nM.

What about the TGI (786-0 renal) of the same compound?
The TGI was 8470 nM.

And the GI50 (HCC-2998 colon)?
Its GI50 is 2110 nM.

And the TGI (HCC-2998 colon)?
The TGI was 7220 nM.

And the GI50 (KM12 colon)?
Its GI50 is 2930 nM.

What about the TGI (KM12 colon) of the same compound?
Its TGI is 12200 nM.

And the GI50 (SK-MEL-5 melanoma)?
The GI50 was 1030 nM.

And the TGI (SK-MEL-5 melanoma)?
The TGI was 2520 nM.

What about the GI50 (SN12C renal) of the same compound?
Its GI50 is 1630 nM.

What about the TGI (SN12C renal) of the same compound?
The TGI was 3410 nM.

What about the GI50 (DU-145 prostate) of the same compound?
The GI50 was 1570 nM.

What about the TGI (DU-145 prostate) of the same compound?
The TGI was 3120 nM.

What about the GI50 (EKVX NSCLC) of the same compound?
The GI50 was 1690 nM.

And the TGI (EKVX NSCLC)?
The TGI was 7960 nM.

And the GI50 (NCI-H226 lung)?
Its GI50 is 2630 nM.

And the TGI (NCI-H226 lung)?
The TGI was 9470 nM.

What about the GI50 (OVCAR-3 ovarian) of the same compound?
The GI50 was 338 nM.

What about the TGI (OVCAR-3 ovarian) of the same compound?
Its TGI is 1190 nM.

And the GI50 (MCF7 breast)?
The GI50 was 353 nM.

What about the TGI (MCF7 breast) of the same compound?
Its TGI is 1590 nM.

What about the GI50 (IGROV1 ovarian) of the same compound?
The GI50 was 2860 nM.

And the TGI (IGROV1 ovarian)?
Its TGI is 14000 nM.

What about the GI50 (SF-295 CNS) of the same compound?
The GI50 was 1540 nM.

And the TGI (SF-295 CNS)?
The TGI was 4190 nM.

And the GI50 (SK-MEL-2 melanoma)?
The GI50 was 1760 nM.

And the TGI (SK-MEL-2 melanoma)?
Its TGI is 4540 nM.

And the GI50 (ACHN renal)?
The GI50 was 789 nM.

And the TGI (ACHN renal)?
The TGI was 5500 nM.

What about the GI50 (MDA-MB-231 breast) of the same compound?
Its GI50 is 359 nM.

And the TGI (MDA-MB-231 breast)?
Its TGI is 2120 nM.

What about the GI50 (NCI-H460 lung) of the same compound?
The GI50 was 2330 nM.

What about the TGI (NCI-H460 lung) of the same compound?
Its TGI is 11200 nM.

And the GI50 (MOLT-4 leukemia)?
The GI50 was 4190 nM.

What about the TGI (MOLT-4 leukemia) of the same compound?
Its TGI is over 23500 nM.

What about the GI50 (CCRF-CEM leukemia) of the same compound?
The GI50 was 683 nM.

And the TGI (CCRF-CEM leukemia)?
Its TGI is over 28700 nM.

What about the GI50 (SF-539 CNS) of the same compound?
The GI50 was 1680 nM.

And the TGI (SF-539 CNS)?
Its TGI is 4760 nM.

And the GI50 (A549 NSCLC)?
Its GI50 is 2930 nM.

And the TGI (A549 NSCLC)?
Its TGI is 19900 nM.

And the GI50 (MDA-MB-435)?
Its GI50 is 516 nM.

What about the TGI (MDA-MB-435) of the same compound?
Its TGI is 1750 nM.

What about the GI50 (SK-MEL-28 melanoma) of the same compound?
Its GI50 is 1590 nM.

And the TGI (SK-MEL-28 melanoma)?
The TGI was 3100 nM.

And the GI50 (SR leukemia)?
Its GI50 is 6140 nM.

What about the TGI (SR leukemia) of the same compound?
The TGI was over 28200 nM.

And the GI50 (HCT-116 colon)?
The GI50 was 820 nM.

What about the TGI (HCT-116 colon) of the same compound?
Its TGI is 2890 nM.

And the GI50 (TK-10 renal)?
Its GI50 is 2710 nM.

What about the TGI (TK-10 renal) of the same compound?
The TGI was 13000 nM.

What about the GI50 (UACC-257 melanoma) of the same compound?
The GI50 was 1800 nM.

What about the TGI (UACC-257 melanoma) of the same compound?
Its TGI is 5010 nM.

What about the GI50 (UACC-62 melanoma) of the same compound?
Its GI50 is 1410 nM.

What about the TGI (UACC-62 melanoma) of the same compound?
The TGI was 2990 nM.

What about the GI50 (UO-31 renal) of the same compound?
Its GI50 is 2390 nM.

And the TGI (UO-31 renal)?
Its TGI is 7600 nM.

What about the GI50 (U251 CNS) of the same compound?
Its GI50 is 1440 nM.

And the TGI (U251 CNS)?
The TGI was 3090 nM.

What about the GI50 (RXF 393 renal) of the same compound?
Its GI50 is 1700 nM.

And the TGI (RXF 393 renal)?
Its TGI is 4290 nM.

And the GI50 (HOP-92 NSCLC)?
Its GI50 is 1500 nM.

And the TGI (HOP-92 NSCLC)?
Its TGI is 4710 nM.

And the GI50 (OVCAR-5 ovarian)?
The GI50 was 1660 nM.

And the TGI (OVCAR-5 ovarian)?
The TGI was 3560 nM.

What about the GI50 (HS 578T breast) of the same compound?
The GI50 was 953 nM.

What about the TGI (HS 578T breast) of the same compound?
Its TGI is 3720 nM.

And the GI50 (T-47D breast)?
The GI50 was 1070 nM.

What about the TGI (T-47D breast) of the same compound?
The TGI was 2720 nM.

What about the GI50 (HL-60(TB) leukemia) of the same compound?
The GI50 was 1740 nM.

What about the TGI (HL-60(TB) leukemia) of the same compound?
The TGI was over 16100 nM.

What about the GI50 (RPMI-8226 leukemia) of the same compound?
Its GI50 is 343 nM.

What about the TGI (RPMI-8226 leukemia) of the same compound?
The TGI was 16300 nM.

And the GI50 (NCI-H522 lung)?
Its GI50 is 1300 nM.

And the TGI (NCI-H522 lung)?
The TGI was 3450 nM.

And the GI50 (OVCAR-8 ovarian)?
Its GI50 is 2610 nM.

And the TGI (OVCAR-8 ovarian)?
Its TGI is 20600 nM.

And the GI50 (OVCAR-4 ovarian)?
Its GI50 is 447 nM.

And the TGI (OVCAR-4 ovarian)?
The TGI was 1750 nM.

And the GI50 (HT29 colon)?
The GI50 was 1760 nM.

What about the TGI (HT29 colon) of the same compound?
Its TGI is 12000 nM.

What about the GI50 (SNB-75 CNS) of the same compound?
Its GI50 is 1380 nM.

And the TGI (SNB-75 CNS)?
The TGI was 3100 nM.

What about the GI50 (HOP-62 NSCLC) of the same compound?
The GI50 was 3660 nM.

And the TGI (HOP-62 NSCLC)?
Its TGI is 10700 nM.
